Holding throughout (test): combination Emax (second highest fraction inhibited in the dose matrix, 72 h); higher = more inhibition; extreme values may be limits of the assay
Assay [1] relates to MDA-MB-361 (Breast Carcinoma). A digest of the protocol: (§1)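 Cell lines in DMEM/F12 or RPMI with 10% FBS were plated in 1536-well plates, held 24 hours at 37°C, 5% CO2, then given two-drug dose matrices for 72 hours (DMSO typically 0.2%). Viability was read by CellTiter-Glo 2.0 luminescence and scaled as inhibition from 0 (vehicle wells) to 1 (blank wells). Combination Emax is the second-highest inhibition in the matrix; Bliss excess is observed combination effect minus expected EA + EB − EA·EB, EA and EB being single-agent effects.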

Assay [2] has as its system HO-1-N-1 (Oral Cavity Carcinoma). The gist of the method:
as §1

In assay [3] the test system is Daoy (Other Solid Carcinomas). The gist of the method:
as §1

Assay [4] concerns CCRF-CEM (T-Lymphoblastic Leukemia). The gist of the method: as §1
In assay [5] the test system is HT-1376 (Bladder Carcinoma). A digest of the protocol: as §1
The subject of assay [6] is HuP-T4 (Pancreatic Carcinoma). The gist of the method:
as §1

The subject of assay [7] is DEL (T-Cell Non-Hodgkin's Lymphoma). The gist of the method:
as §1

Assay [8] deals with LB831-BLC (Bladder Carcinoma). The gist of the method: as §1
The test system of assay [9] is MFE-296 (Endometrial Carcinoma). The gist of the method: as §1
For another assay, the system named is ES4 (Ewing's Sarcoma). The gist of the method: as §1
In assay [10] the test system is UM-UC-3 (Bladder Carcinoma). A digest of the protocol: as §1
The subject of assay [11] is TE-9 (Esophageal Squamous Cell Carcinoma). A digest of the protocol: as §1
The test system of assay [12] is CaR-1 (Colorectal Carcinoma). A digest of the protocol:
as §1

Assay [13] concerns SNU-5 (Gastric Carcinoma). The gist of the method:
as §1

Assay [14] relates to TCCSUP (Bladder Carcinoma). The gist of the method: as §1
Assay [15] deals with NCI-H82 (Small Cell Lung Carcinoma). The gist of the method: as §1
Assay [16] deals with HCC-78 (Lung Adenocarcinoma). The gist of the method: as §1
Assay [17] concerns RC-K8 (B-Cell Non-Hodgkin's Lymphoma). The gist of the method:
as §1

Another assay relates to AGS (Gastric Carcinoma). The gist of the method:
as §1

Assay [18] deals with NCI-H2085 (Non-Small Cell Lung Carcinoma). A digest of the protocol: as §1

As for `COc1cc2ncnc(Nc3ccc(F)c(Cl)c3)c2cc1OCCCN1CCOCC1` [Gefitinib] + CC(C)n1c(=O)n(C)c2cnc3cc(F)c(-c4ccc(OCCCN5CCCCC5)nc4)cc3c21 [AZD1390] (first compound max 10 µM, 7x7, partner max 0.3 µM), the “combination Emax” value in [1] amounted to 0.207; in assay [2], 0.568; in assay [3], 0.0924; in assay [4], 0.054; in assay [5], 0.177; in assay [6], 0.178. The “combination Emax” value in [7] was determined as 0.187; in assay [8], 0.202; in assay [9] it was 0.0821; with ES4 (Ewing's Sarcoma), 0.3; in assay [10] it was 0.0932; in assay [11], 0.0944. Also, the “combination Emax” value in [12] amounted to 0.227; in assay [13], 0.178; in [14], 0.114; in [15], 0.386; in [16] it was 0.133; in [17], 0.105. Besides, the “combination Emax” value in the assay on AGS (Gastric Carcinoma) amounted to 0.133; in assay [18] it was 0.225.

With `NC1(C(=O)N[C@@H](CCO)c2ccc(Cl)cc2)CCN(c2ncnc3[nH]ccc23)CC1` [Capivasertib] + CCN(CCO)CCCOc1ccc2c(Nc3cc(CC(=O)Nc4cccc(F)c4)[nH]n3)ncnc2c1 [AZD2811] (first compound max 10 µM, 7x7, partner max 1 µM), the “combination Emax” value came out at 0.718 in [1]; 0.833 in assay [2]; 0.501 in [3]; 1 in assay [4]; 0.156 in assay [5]; 0.322 in assay [6]. For the same molecule, the “combination Emax” value in assay [7] was 0.859; in assay [8], 0.482; in assay [9], 0.549; with ES4 (Ewing's Sarcoma) it was 0.422; in assay [10], 0.298; in assay [11], 0.267. For the same molecule, the “combination Emax” value in [12] stood at 0.501; in [13], 0.499; in [14] it was 0.389; in assay [15] it was 0.925; in assay [16] it was 0.349; in assay [17], 0.53. Also, the “combination Emax” value is 0.706 in the assay on AGS (Gastric Carcinoma) and 0.436 in assay [18].

As to `CC1(C)CCC(CN2CCN(c3ccc(C(=O)NS(=O)(=O)c4ccc(NCC5CCOCC5)c([N+](=O)[O-])c4)c(Oc4cnc5[nH]ccc5c4)c3)CC2)=C(c2ccc(Cl)cc2)C1` [Venetoclax] + Cn1cnc2c(F)c(Nc3ccc(Br)cc3Cl)c(C(=O)NOCCO)cc21 [Selumetinib] (first compound max 1 µM, 7x7, partner max 3 µM), the “combination Emax” value in [1] worked out at 0.155; in [2], 0.205; in assay [3] it was 0.0883; in assay [4], 0.926; in assay [5] it was 0.163; in [6], 0.352. The “combination Emax” value was 0.382 in assay [7]; 0.142 in [8]; 0.0803 in assay [9]; 0.0348 in the assay with ES4 (Ewing's Sarcoma); 0.189 in assay [10]; 0.0846 in assay [11]. For the same molecule, the “combination Emax” value in assay [12] came to 0.103; in assay [13], 0.453; in [14], 0.136; in [15] it was 0.161; in assay [16], 0.167; in assay [17], 0.227. Besides, the “combination Emax” value in the assay on AGS (Gastric Carcinoma) was found to be 0.656; in [18] it was 0.23.

Consider `CC1(C)CCC(CN2CCN(c3ccc(C(=O)NS(=O)(=O)c4ccc(NCC5CCOCC5)c([N+](=O)[O-])c4)c(Oc4cnc5[nH]ccc5c4)c3)CC2)=C(c2ccc(Cl)cc2)C1` [Venetoclax] + CN(C)CCCOc1ccc(-c2ccc3ncc4c(c3c2)n(C2CCOCC2)c(=O)n4C)cn1 [AZD0156] (first compound max 1 µM, 7x7, partner max 1 µM), for which the “combination Emax” value came to 0.261 in [1]; 0.53 in assay [2]; 0.168 in [3]; 0.931 in assay [4]; 0.189 in assay [5]; 0.144 in [6]. The “combination Emax” value turned out to be 0.192 in [7]; 0.228 in assay [8]; 0.144 in assay [9]; 0.173 with ES4 (Ewing's Sarcoma); 0.252 in [10]; 0.141 in [11]. The “combination Emax” value in [12] was found to be 0.145; in assay [13], 0.222; in [14], 0.189; in assay [15], 0.343; in assay [16], 0.181; in assay [17] it was 0.316. The figures for the “combination Emax” value (in the assay on AGS (Gastric Carcinoma); in [18]) were 0.221 and 0.186, respectively.

Consider `CC1(C)CCC(CN2CCN(c3ccc(C(=O)NS(=O)(=O)c4ccc(NCC5CCOCC5)c([N+](=O)[O-])c4)c(Oc4cnc5[nH]ccc5c4)c3)CC2)=C(c2ccc(Cl)cc2)C1` [Venetoclax] + C[C@@H](Nc1cc(F)cc(F)c1)c1cc(C(=O)N(C)C)cc2c(=O)cc(N3CCOCC3)oc12 [AZD8186] (first compound max 1 µM, 7x7, partner max 3 µM), for which the “combination Emax” value was 0.372 in [1]; 0.152 in assay [2]; 0.176 in [3]; 0.95 in assay [4]; 0.0567 in [5]; 0.195 in [6]. Further, the “combination Emax” value was 0.312 in assay [7]; 0.182 in [8]; 0.0282 in assay [9]; 0.211 in the assay with ES4 (Ewing's Sarcoma); 0.164 in [10]; 0.129 in assay [11]. Moreover, the “combination Emax” value in [12] was determined as 0.109; in [13], 0.406; in [14], 0.131; in [15], 0.141; in [16], 0.261; in assay [17], 0.281. Further, the “combination Emax” value turned out to be 0.106 in the assay with AGS (Gastric Carcinoma) and 0.354 in assay [18].

On to `Cc1c2c(nn1C)CSCc1cc(n(C)n1)CSc1cc(c3ccccc3c1)OCCCc1c(C(=O)O)n(C)c3c-2c(Cl)ccc13` [AZD5991] + Cc1cc2ncnn2cc1Nc1ncc2c(n1)n(C1CCOCC1)c(=O)n2C [AZD7648] (first compound max 1 µM, 7x7, partner max 10 µM), for which the “combination Emax” value in [1] is 0.816; in assay [2], 0.794; in [3] it was 0.244; in assay [4], 0.52; in [5], 0.221; in assay [6] it was 0.325. Moreover, the “combination Emax” value in assay [7] was 1; in [8], 0.251; in assay [9], 0.267; in the assay on ES4 (Ewing's Sarcoma) it was 0.229; in [10] it was 0.226; in assay [11], 0.214. In addition, the “combination Emax” value in assay [12] was 0.277; in assay [13], 0.347; in [14], 0.25; in assay [15] it was 0.927; in assay [16], 0.339; in assay [17], 0.425. Further, the figures for the “combination Emax” value (in the assay with AGS (Gastric Carcinoma); in assay [18]) were 0.233 and 0.244, respectively.

Source of the values: the supplement of paper PMC11061612.
